From patent publication US5541162A, “Glutathione derivatives” (Senju Pharmaceutical Co., Ltd., priority 1990, dated 1996) come the findings set out here.

Assay [1] has as its system acetaminophen-induced liver damage. Put plainly: Effect on acetaminophen-induced liver damage. The class given is in vivo, rat. To be noted: for s-GOT, mean ± S.E. / s-GPT, mean ± S.E. / s-GOT percent inhibition (figure in parentheses) / s-GPT percent inhibition (figure in parentheses): male SD rats; for s-GOT, mean ± S.E. / s-GPT, mean ± S.E.: 0.5 mmole/kg orally 1 hour before acetaminophen 300 mg/kg i.p., serum after 24 hours; for s-GOT percent inhibition (figure in parentheses) / s-GPT percent inhibition (figure in parentheses): vs physiological saline control. As to the method:
Method: Male SD rats (body weights about 180 g) purchased from Shizuoka Laboratory Animal Center were used as test animals. The test substance was orally administered (0.5 mmole/kg), and after 1 hour, acetaminophen 300 mg/kg was intraperitoneally administered. After 24 hours, the blood was drawn from the abdominal aorta of each rat and the serum was separated and determined for s-GOT and GPT.

The subject of assay [2] is carrageenin-induced conjunctival edema. The assay can be described thus: Effect on carrageenin-induced conjunctival edema. Format: in vivo, rat. To be noted: male Wistar rats; for % Inhibition (conjunctival edema): 30 mg/kg i.v., vs physiological saline control; for Conjunctival edema weight (mg ± S.E): test substance 30 mg/5 ml/kg i.v. 1 minute before subconjunctival 1% carrageenin, n=10. As to the method:
Method: Male Wistar rats (body weight about 120 g) purchased from Shizuoka Laboratory Animal Center were used as test animals. Each animal was anesthesized with pentobarbital 6 mg/kg i.p. and a solution of the test substance in physiological saline was intravenously administered (30 mg/5 ml/kg). After 1 minute, 50 μl of a 1% solution of carrageenin in physiological saline was injected subconjunctivally. After 3 minutes, the rat was sacrificed and the carrageenin-induced conjunctival edema was weighed.

In assay [3] the test system is rat back passive anaphylactic reaction. The assay can be described thus: Effect on rat back passive anaphylactic reaction. The note with it: male Wistar rats; for % Inhibition (passive anaphylactic reaction): 30 mg/kg i.v., vs physiological saline control; for Absorbance (extracted Evans blue dye), mean ± S.E.: 30 mg/kg into caudal vein 1 minute before antigen, dye extracted after 30 minutes, n=5. The class given is in vivo. How it is done: Method: Male Wistar rats (body weight about 130 g) purchased from Shizuoka Laboratory Animal Center were used as test animals. The back hair of each rat was clipped off and the antiserum was injected intradermally at the back. After 3 days, the test substance 30 mg/kg was injected into the caudal vein (control: physiological saline). One minute later, 1 ml of a 50:50 mixture of 1% egg white albumin and 2% Evans blue in physiological saline was intravenously administered as the antigen to induce a passive anaphylactic reaction. After 30 minutes, the rat was sacrificed, the stained area of the rat back was isolated the dye was extracted with 10 ml of formamide to determine the amount of the dye.

Take `CCCCOC(=O)CC(CSC[C@H](NC(=O)CC[C@H](N)C(=O)O)C(=O)NCC(=O)OC(C)C)C(=O)OCCCC` (stereo partly drawn) [R1 = C3 H7, R2 = R3 = C4 H9, S-(2,3-Dicarbo-n-butoxypropyl)glutathione isopropyl ester]: in assay [1] (0.5 mmole/kg orally, rats), the “Efficacy on acetaminophen-induced liver damage (in words)” value was “significant effect”. Besides, in assay [1], the “s-GOT, mean ± S.E.” value is reported as 309 ± 105 and the “s-GPT, mean ± S.E.” value was determined as 86 ± 31. In addition, in assay [1] (0.5 mmole/kg orally), the “s-GOT percent inhibition (figure in parentheses)” value (“s-GOT percent inhibition” for short) is 88.4% and the “s-GPT percent inhibition (figure in parentheses)” value (“s-GPT percent inhibition” for short) was determined as 70.9%.

On to `CC(C)OC(=O)CNC(=O)[C@H](CSC(CC(N)=O)C(N)=O)NC(=O)CC[C@H](N)C(=O)O` (stereo partly drawn) [R1 = C3 H7, R2 = R3 = NH2, S-(1,2-Dicarbamoylethyl)glutathioneisopropyl ester], for which, in assay [1], the “s-GOT, mean ± S.E.” value was determined as 1760 ± 911 and the “s-GPT, mean ± S.E.” value is 740 ± 394. In addition, in assay [1] (0.5 mmole/kg orally), the “s-GOT percent inhibition” value is 59.8% and the “s-GPT percent inhibition” value is given as 46.7%. Also, in assay [2], the “% Inhibition (conjunctival edema)” value is listed as 26.2% and the “Conjunctival edema weight (mg ± S.E)” value was found to be 58.2 ± 1.4 mg. In assay [3], the “% Inhibition (passive anaphylactic reaction)” value was 43.6% and the “Absorbance (extracted Evans blue dye), mean ± S.E.” value (“Absorbance” for short) was found to be 0.492 ± 0.083.

Consider `CCOC(=O)CC(SC[C@H](NC(=O)CC[C@H](N)C(=O)O)C(=O)NCC(=O)OC(C)C)C(=O)OCC` (stereo partly drawn) [R1 = C3 H7, R2 = R3 = OC2 H5, γ-L-Glutamyl-[S-(1,2-dicarbethoxyethyl)]-L-cystinylglycine isopropyl ester], for which, in assay [1], the “s-GOT, mean ± S.E.” value is listed as 394 ± 178 and the “s-GPT, mean ± S.E.” value came out at 111 ± 51. In assay [1] (0.5 mmole/kg orally), the “s-GOT percent inhibition” value stood at 91.0% and the “s-GPT percent inhibition” value came to 92.0%. Besides, in assay [2], the “% Inhibition (conjunctival edema)” value is given as 23.7% and the “Conjunctival edema weight (mg ± S.E)” value worked out at 60.2 ± 1.2 mg. Moreover, in assay [3], the “% Inhibition (passive anaphylactic reaction)” value stood at 44.6% and the “Absorbance” value came out at 0.484 ± 0.093.

As for `CCCCOC(=O)CC(SC[C@H](NC(=O)CC[C@H](N)C(=O)O)C(=O)NCC(=O)OC(C)C)C(=O)OCCCC` (stereo partly drawn) [R1 = C3 H7, R2 = R3 = OC4 H9, S-(1,2-Dicarbo-n-butoxyethyl)glutathione isopropyl ester], in assay [1], the “s-GOT, mean ± S.E.” value is 178 ± 64 and the “s-GPT, mean ± S.E.” value worked out at 45 ± 11. In assay [1] (0.5 mmole/kg orally), the “s-GOT percent inhibition” value was 95.9% and the “s-GPT percent inhibition” value was 96.8%. Further, in assay [2], the “% Inhibition (conjunctival edema)” value came out at 1.9% and the “Conjunctival edema weight (mg ± S.E)” value amounted to 77.4 ± 4.0 mg. For the same compound, in assay [3], the “% Inhibition (passive anaphylactic reaction)” value is listed as 43.6% and the “Absorbance” value is given as 0.492 ± 0.094.

With `CC(C)OC(=O)CNC(=O)[C@H](CSC1CC(=O)NC1=O)NC(=O)CC[C@H](N)C(=O)O` (stereo partly drawn) [R1 = C3 H7, R2 R3 = NH, S-[(1,2-Dicarboximido)ethyl]glutathione isopropyl ester], in assay [2], the “% Inhibition (conjunctival edema)” value came out at 21.4% and the “Conjunctival edema weight (mg ± S.E)” value worked out at 62.0 ± 1.6 mg. In assay [3], the “% Inhibition (passive anaphylactic reaction)” value stood at 26.5% and the “Absorbance” value is 0.642 ± 0.141.

As for `NC(=O)CC(SC[C@H](NC(=O)CC[C@H](N)C(=O)O)C(=O)NCC(=O)O)C(N)=O` (stereo partly drawn) [R1 = H, R2 = R3 = NH2, S-(1,2-Dicarbamoylethyl)glutathione], in assay [1], the “s-GOT, mean ± S.E.” value stood at 591 ± 155 and the “s-GPT, mean ± S.E.” value is reported as 147 ± 48. For the same compound, in assay [1] (0.5 mmole/kg orally), the “s-GOT percent inhibition” value came out at 78.9% and the “s-GPT percent inhibition” value is listed as 79.1%. Further, in assay [2], the “% Inhibition (conjunctival edema)” value came to 5.4% and the “Conjunctival edema weight (mg ± S.E)” value amounted to 67.1 ± 3.8 mg. In assay [3], the “% Inhibition (passive anaphylactic reaction)” value was determined as 35.3% and the “Absorbance” value is 0.565 ± 0.162.

Turning to `CCN1C(=O)CC(SC[C@H](NC(=O)CC[C@H](N)C(=O)O)C(=O)NCC(=O)O)C1=O` (stereo partly drawn) [R1 = H, R2 R3 = N--C2 H5, S-[N-Ethyl-2,5-dioxopyrrolidin-3-yl]glutathione], in assay [2], the “% Inhibition (conjunctival edema)” value turned out to be 9.9% and the “Conjunctival edema weight (mg ± S.E)” value is 63.9 ± 3.6 mg. Also, in assay [3], the “% Inhibition (passive anaphylactic reaction)” value was determined as 41.1% and the “Absorbance” value is on record as 0.514 ± 0.050.

On to `N[C@@H](CCC(=O)N[C@@H](CSC1CC(=O)NC1=O)C(=O)NCC(=O)O)C(=O)O` (stereo partly drawn) [R1 = H, R2 R3 = NH, S-[(1,2-Dicarboximido)ethyl]glutathione], for which, in assay [1], the “s-GOT, mean ± S.E.” value was 1288 ± 316 and the “s-GPT, mean ± S.E.” value stood at 351 ± 82. Also, in assay [1] (0.5 mmole/kg orally), the “s-GOT percent inhibition” value is listed as 54.0% and the “s-GPT percent inhibition” value is recorded as 50.1%. For the same compound, in assay [2], the “% Inhibition (conjunctival edema)” value is reported as 9.9% and the “Conjunctival edema weight (mg ± S.E)” value is reported as 63.9 ± 4.1 mg. Besides, in assay [3], the “% Inhibition (passive anaphylactic reaction)” value stood at 47.4% and the “Absorbance” value is listed as 0.459 ± 0.104.

On to “S-(1,2-Dicarboxyethyl)glutathioneisopropyl ester [R1 = C3 H7, R2 = R3 = OH]”, for which, in assay [1], the “s-GOT, mean ± S.E.” value is listed as 929 ± 500 and the “s-GPT, mean ± S.E.” value was determined as 404 ± 278. Also, in assay [1] (0.5 mmole/kg orally), the “s-GOT percent inhibition” value is 78.8% and the “s-GPT percent inhibition” value stood at 70.9%. In assay [2], the “% Inhibition (conjunctival edema)” value turned out to be 19.0% and the “Conjunctival edema weight (mg ± S.E)” value is 63.9 ± 3.6 mg. In assay [3], the “% Inhibition (passive anaphylactic reaction)” value worked out at 47.7% and the “Absorbance” value came out at 0.457 ± 0.055.

Consider “S-[1-(or 2)Carboxy-2-(or 1)carbamoylethyl]glutathione”, for which, in assay [2], the “% Inhibition (conjunctival edema)” value is given as 9.6% and the “Conjunctival edema weight (mg ± S.E)” value came to 64.1 ± 4.2 mg. Moreover, in assay [3], the “% Inhibition (passive anaphylactic reaction)” value was 43.4% and the “Absorbance” value is given as 0.494 ± 0.066.
